According to publication PMC11507441, “Oilseed Cakes: A Promising Source of Antioxidant, and Anti-Inflammatory Agents—Insights from Lactuca sativa” (International Journal of Molecular Sciences, 2024):
Converted amounts (≈) assume the structure as drawn.

Assays:
S. aureus = assay: Antimicrobial screening, zone of inhibition; format: cell-based; conditions: Table 1
Protocol: The procedure was performed according to […] et al.. A comparison of the extract's zone of inhibition to that of a reference antibiotic's activity index was determined using the following equation:Activity index = (the inhibition zone of extract/the inhibition zone of the standard) × 100

HepG-2 cancer cell line = assay: Cytotoxic activity (MTT assay); format: cell-based
Protocol: (§1) The HPLC was performed in the Institute for Plant Biology, TU Braunschweig, using a Young Lin quaternary pump, vacuum degasser, column oven (40 °C), diode array detector (YL9160 PDA), and a Midas Spark Holland autosampler. UV spectra (λ max) were measured in the central laboratory of the Faculty of Pharmaceutical Science at Mansoura University using spectroscopic methanol with an ultraviolet-visible spectrophotometer (Shimadzu 1601 PC, version TCC-240A, Kyoto, Japan). The NMR unit of Mansoura University’s Faculty of Pharmacy obtained nuclear magnetic resonance spectra (^1H-NMR, ^13C-NMR, DEPT-Q, APT, HSQC, and HMBC) using a Bruker DRX 600 NMR spectrometer (600 and 150 MHz for ^1H and ^13C-NMR, respectively) and with the Bruker Corporation Avance III 400 spectrometer, which measures ^1H and ^13C-NMR at 400 and 100 MHz, respectively. The types of solvents that are used are CDCl3, CD3OD, and DMSO-d6. For normal phase chromatography, silica gel G 60–230 mesh (Merck, Darmstadt, Germany) was packed using a wet or dry method in the specified solvent. The purchase of Normal Human lung fibroblast (WI-38), hepatic cancer cell lines (HePG-2), and mammary gland (MCF-7) cell lines from ATCC was made possible by the Holding firm for biological goods and vaccines (VACSERA), which is based in Cairo, Egypt.
(§2) Using the MTT test, the inhibitory effects of substances on cell growth were ascertained using the cell lines compared to normal lung fibroblast cells (WI-38). The selectivity index was calculated via the Selectivity index (SI) equation: SI equals IC50 normal/IC50 cancer.

MCF-7 cancer cell line = assay: Cytotoxic activity (MTT assay); format: cell-based
Protocol: as §1, §2

dermal inflammation = assay: Histopathological assessment of paw skin tissue (carrageenan model); format: in vivo, rat; conditions: 5 h after carrageenan
Source text: Five hours following the carrageenan injection, tissue specimen samples from the paw skin tissue of every group under study were removed for histological examination. Prior to being submerged in paraffin blocks, they were fixed in a 10% formalin solution and stained with hematoxylin-eosin. Using a microtome, paraffin sections with a thickness of 5 µm were cut, and hematoxylin and eosin were frequently applied to the sections. Microscopically, these tissue slices were inspected. Consequently, the sections were examined under a light microscope; on the other hand, photos taken with a digital camera (Canon Power-shot D10) recorded the progression of paw oedema.

TNF-α = TNF-α in rat paw tissue homogenate (carrageenan model); format: in vivo; conditions: doses of 20 and 40 mg/kg; compared to the vehicle control group
Protocol: (§3) The levels of inflammatory mediators (IL-1β, TNF-α, and PGE2) in rat paw tissue homogenate were measured using the following Kits: Rat TNF-α (Tumor Necrosis Factor Alpha) ELISA Kit from Elabscience® Company, Houston, TX, USA, Interleukin 1 Beta (IL-1b) Organism Species: Rattus norvegicus (Rat) from Cloud Clone Crop Company and Rat PGE2 (Prostaglandin E2) ELISA Kit from Fine test® company Hubei, China. In addition, oxidative stress parameters in rat paw tissue homogenate were measured using superoxide dismutase, glutathione peroxidase, and catalase Kits from the Biodiagnostic company, Birmingham, UK.
(§4) Rats were slaughtered, and their paw tissues were gathered and weighed five hours after the carrageenan was administered. The tissues underwent processing after being fixed in 10% formalin. Rat paw tissue was homogenized, and its oxidative stress indices (SOD, CAT, and GPx) as well as the levels of inflammatory mediators (IL-1β, TNF-α, and PGE2) were measured.

GPx = GPx activity in rat paw tissue homogenate (carrageenan model); format: in vivo; conditions: for GPx (U/gm Tissue): paw tissue 5 h after carrageenan
Protocol: as §3, §4

SOD = SOD activity in rat paw tissue homogenate (carrageenan model); format: in vivo; conditions: for SOD (U/gm Tissue): paw tissue 5 h after carrageenan
Protocol: as §3, §4

[1] = tested on: SARS-CoV-2 main protease Mpro or 3CLpro; conditions: cited from earlier work
[2] = IC50 normal (WI-38)/IC50 cancer
[3] = 40 mg/kg, compared to the control group

SMILES: NC(CO)C(O)c1ccc2c(c1)OCO2 (stereo not shown) [Compound 1, 1,3-propanediol-2-amino-1-(3′,4′-methylenedioxyphenyl)]
- zone of inhibition at 1000 µg/mL (S. aureus; Staphylococcus aureus, isolated compounds 1 mg/mL, read-out: S. aureus Diameter of Inhibition Zone (mm)): 6.9 ± 0.1 mm
- S. aureus %Activity Index (S. aureus; 1 mg/mL, relative to ciprofloxacin): 28.9%
- IC50 (HepG-2 cancer cell line; Homo sapiens, HepG2, MTT, read-out: In Vitro Cytotoxicity IC50 (µg/mL) HepG-2): 82.8 ± 4.1 µg/mL (≈ 392 µM)
- Selectivity Index HepG2 (HepG-2 cancer cell line; [2]): 0.75
- IC50 (MCF-7 cancer cell line; Homo sapiens, MCF7, MTT, read-out: In Vitro Cytotoxicity IC50 (µg/mL) MCF-7): 86.8 ± 3.9 µg/mL (≈ 411 µM)
- Selectivity Index MCF-7 (MCF-7 cancer cell line; [2]): 0.71
- Histopathology of paw skin (H&E) (dermal inflammation; Group 6, 40 mg/kg): substantial reduction in dermal inflammation
- Histopathology of paw skin (H&E) (dermal inflammation; oral 20 mg/kg): moderate decrease in both inflammation and leukocyte infiltration
- TNF-α level in paw tissue (TNF-α): significant reduction
- GPx activity restored (GPx; [3]): 73.17%
- GPx (U/gm Tissue) (GPx; 20 mg/kg): 77.65 ± 3.18 U/gm Tissue
- GPx (U/gm Tissue) (GPx; 40 mg/kg): 86.75 ± 6.01 U/gm Tissue
- SOD activity restored (SOD; [3]): 71.43%
- SOD (U/gm Tissue) (SOD; 20 mg/kg): 118.35 ± 1.06 U/gm Tissue
- SOD (U/gm Tissue) (SOD; 40 mg/kg): 135.05 ± 11.67 U/gm Tissue
- inhibitory activity against SARS-CoV-2 main protease [1]: moderate inhibitory activities
